Legend:
[1] = test system: mesenchymal and epithelial cells; test: Proliferation summary for variants; assay type: cell-based; conditions: in vitro
Procedure: (§1) Experiments were performed to evaluate the proliferative response of representative cell types to CG53135, e.g., a full-length tagged variant (CG53135-01), a deletion variant (CG53135-02), and a full-length codon-optimized untagged variant (CG53135-05).
(§2) CG53135-02 (batch 1 and 13) was also used in these experiments. Protein was expressed in E. coli, BLR (DE3) (Novagen), transformed with the deletion variant CG53135-02 inserted into a pET24a vector (Novagen). A research cell bank (RCB) was produced and cell paste containing CG53135-02 was produced by fermentation of cells originating from the RCB. Cell membranes were disrupted by high-pressure homogenization, and lysate was clarified by centrifugation. CG53135-02 was purified by ion exchange chromatography. The final protein fraction was dialyzed against the formulation buffer (100 mM citrate, 1 mM ethylenediaminetetraacetic acid (EDTA), and 1 M L-arginine).
(§3) CG53135-05, DEV10, which were also used in these experiments, was prepared by Cambrex Biosciences (Hopkinton, Mass.) according to Process 1 as described in Section 6.18.1, infra.
(§4) BrdU Incorporation: proliferative activity was measured by treatment of serum-starved cultured cells with a given agent and measurement of BrdU incorporation during DNA synthesis. Cells were cultured in respective manufacturer recommended basal growth medium supplemented with 10% fetal bovine serum or 10% calf serum as per manufacturer recommendations. Cells were grown in 96-well plates to confluence at 37° C. in 10% CO2/air (to subconfluence at 5% CO2 for dedifferentiated chondrocytes and NHOst). Cells were then starved in respective basal growth medium for 24-72 hours. CG53135 protein purified from E. coli or pCEP4/Sec or pCEP4/Sec-FGF 20× enriched conditioned medium was added (10 μL/100 μL of culture) for 18 hours. BrdU (10 μM final concentration) was then added and incubated with the cells for 5 hours. BrdU incorporation was assayed according to the manufacturer's specifications (Roche Molecular Biochemicals, Indianapolis, Ind.).
(§5) The above described experiments were also performed using CG53135-02 and CG53135-05 protein products, and the results are summarized in the Conclusion section below.

endothelial cells = test: Proliferation summary for variants; assay type: cell-based; conditions: in vitro
Procedure: as §1, §2, §3, §4, §5

[2] = test system: chronic DSS-induced ulcerative colitis in female Swiss Webster mice; test: Chronic DSS colitis, every other day dosing (N-405); assay type: in vivo, mouse; conditions: 3.33 mg/kg (UV) IP on Days 6, 8, 10, 12, 14 (q2d)
[3] = test system: NIH 3T3 murine embryonic fibroblast cells; test: BrdU incorporation bioassay of RP-HPLC peak fractions; assay type: cell-based, mouse; conditions: BrdU incorporation
Procedure: The biological activity of CG53135-05 related species collected from the 4 peaks identified by LC and MS was measured by treatment of serum-starved cultured NIH 3T3 murine embryonic fibroblast cells with various doses of the isolated CG53135-05 related species and measurement of incorporation of bromodeoxyuridine (BrdU) during DNA synthesis. For this assay, cells were cultured in Dulbecco's modified Eagle's medium supplemented with 10% fetal bovine serum. Cells were grown in 96-well plates to confluence at 37° C. in 10% CO2/air and then starved in Dulbecco's modified Eagle's medium for 24-72 hours. CG53135-05-related species were added and incubated for 18 hours at 37° C. in 10% CO2/air. BrdU ([…]) was added and incubated with the cells for 2 hours at 37° C. in 10% CO2/air. Incorporation of BrdU was measured by enzyme-linked immunosorbent assay according to the manufacturer's specifications (Roche Molecular Biochemicals, Indianapolis, Ind.).
Peak 4 was not included in this assay since insufficient material was collected (Peak 4 is less than 3% of the total peak area for CG53135-05).

[4] = test system: DSS-induced ulcerative colitis in female Swiss Webster mice; test: Chronic 2 week DSS-induced ulcerative colitis (N-404); assay type: in vivo, mouse
Procedure: Colitis was induced in female Swiss Webster mice by exposure to 3% DSS in the drinking water (ad libitum) on study Days 1-5 and maintained by exposure to 1% DSS in the drinking water (ad libitum) on study Days 6-15. Mice were randomly assigned to 4 groups of 15 animals (Table X). Mice were exposed to 3% DSS in drinking water on test Days 1 through 5 and 1% DSS on test Days 6-15, with concurrent intraperitoneal (IP) treatments of vehicle or CG53135-05 at 0.33, 1.67 and 3.33 mg/kg (UV) Days 6-14 after disease was established. Mice were weighed daily. On Day 15 animals were terminated by cervical dislocation, the colon length was measured, and colon content was scored. Tissues were collected into 10% neutral buffered formalin and processed routinely for histopathology.
Clinical Parameters and Gross Pathology: Only animals that survived the duration of the study were included in the analysis of body weight change, terminal colon lengths, and colon content scores. At necropsy, the colon length was measured and assessed for evidence of stool consistency changes. Colon content was scored at necropsy according to the following criteria: 0=Normal (firm, well formed stool); 1=Semi-solid stool; 2=Semi-solid to fluid stool; and 3=Semi-solid with definite evidence of blood, bloody fluid or no content.
Histopathology: At necropsy, the colon was harvested and divided into 2 approximately equal segments, proximal and distal, to assess regional changes induced in this model. Distal ends were marked to maintain orientation. These colon segments were collected, preserved in 10% neutral buffered formalin, and routinely processed for histopathologic evaluation. During processing for histology, the proximal and distal colon segments were each trimmed to obtain 4 equally spaced segments, and hematoxylin and eosin (H&E) stained slides were prepared for each. Both proximal and distal tissues were examined as these tissues are affected to different degrees of severity in this model (more severe and less variable symptoms predominate in the distal colon).
For each colon section, submucosal edema was quantified by measuring the distance (mm) from the muscularis mucosa to the internal border of the outer muscle layer. The extent of inflammation (foamy macrophages, lymphocytes and polymorphonuclear cell infiltrate) was assigned severity scores according to the following ranking: 0=Normal; 1=Minimal; 2=Mild; 3=Moderate; 4=Marked; and 5=Severe.
The parameters reflecting epithelial cell loss/damage were scored individually using a percent area involved scoring method. Parameters that were scored using the percent involvement scale included colon glandular loss and colon erosion. • 0=None • 1=1-10% of the mucosa affected • 2=11-25% of the mucosa affected • 3=26-50% of the mucosa affected • 4=51-75% of the mucosa affected • 5=76-100% of the mucosa affected
Mucosal epithelial hyperplasia (basophilia, mitotic figures, multilayered on basement membranes, absence of goblet cells) was scored 0-5 based on the following criteria • 0=Normal • 1=Minimal-small foci generally adjacent to the inflammatory changes • 2=Mild-11-25% of mucosa affected • 3=Moderate-26-50% of mucosa affected • 4=Marked-[…] of mucosa affected • 5=Severe-51-100% of mucosa affected plus papillary proliferation into lumen
Mucosal thickness (an indicator of proliferative changes or edematous inflammatory mucosal expansion) was measured by placing an ocular micrometer at the base of the glands and the overlying surface epithelium in a non-tangential area of section representative of the thickest areas of mucosa.
The scores for proximal tissues and distal colon were averaged to determine a score for the entire colon for each parameter evaluated. […]

[5] = 3.33 mg/kg (UV), non-significant

## CG53135-05: Codon optimized, full length FGF-20, untagged; SEQ ID NOs 8 and 2
[1]
  proliferation of mesenchymal and epithelial cells: induce proliferation
Endothelial cells
  proliferation of endothelial cells: not
[2]
  severity of chronic DSS-induced ulcerative colitis: significantly reduced the severity
[3]
  induction of DNA synthesis / activity in proliferation assays: dose-dependent manner
[4]; 0.33 mg/kg (UV) IP once daily Days 6-14
  reduction in weight loss: 19%
[4]; 1.67 mg/kg (UV) IP once daily Days 6-14
  reduction in weight loss: 35%
[4]; 3.33 mg/kg (UV)
  improvement in "on" inflammation: 35%
  improvement in distal gland loss: 38%
  improvement in distal summed histopathologic scores: 38%
  improvement in total gland loss: 37%
  improvement in total inflammation: 34%
  improvement in total summed histopathologic scores: 37%
[4]; 3.33 mg/kg (UV) IP once daily Days 6-14
  reduction in weight loss: 67%
[4]; [5]
  improvement in the hyperplasia score: 31%
  inhibition of the total mucosal thickness: 39%
[4]; 3.33 mg/kg (UV), statistically significant
  colon length, inhibition of decrease: 29%
[4]; 1.67 or 3.33 mg/kg (UV)
  improvement of colon scores: 21-29%
[4]; mid and high dose groups, non-significant
  inhibition of proximal, distal and total colon erosion: 46-62%
